Where two headings read alike, the source gives them in different places.
Target: T1, indoleamine 2,3-dioxygenase (IDO) (Homo sapiens, UniProt P14902)
T1 construct: media containing IFNγ (#285-IF/CF, R&D Systems) at a final concentration of 25 ng/mL; endogenous in cells; host or cells: HeLa (ATCC CCL-2), induced with IFN-gamma
Assay: HeLa cell-based indoleamine 2,3-dioxygenase (IDO) assay
Settings: HeLa cells with IFNγ 25 ng/mL, 48 hour incubation, kynurenine production
Procedure: Assessment of Inhibitor Activity in HeLa Cell-Based Indoleamine 2,3-Dioxygenase (IDO) Assay.
HeLa (ATCCR CCL-2) cells were obtained from the ATCC® and cultured in Dulbecco's Modified Eagle Medium supplemented with 4.5 g/L glucose, […] L-glutamine and […] (#10-013-CV, Corning), 2 mM L-alanyl-L-glutamine dipeptide (#35050-061, Gibco), 100U/mL penicillin, 100 µg/mL streptomycin (#SV30010, HyClone) and 10% fetal bovine serum (#SH30071.03 HyClone). Cells were maintained in a humidified incubator at 37° C. in 5% CO2.
IDO activity was assessed as a function of kynurenine production as follows: HeLa cells were seeded in a 96-well culture plate at a density of 5,000 cells/well and allowed to equilibrate overnight. After 24 hours, the media was aspirated and replaced with media containing IFNγ (#285-IF/CF, R&D Systems) at a final concentration of 25 ng/mL. A serial dilution of each test compound was added to the cells in a total volume of 200 μL of culture medium. After a further 48 hour incubation, 170 μL of supernatant was transferred from each well to a fresh 96-well plate. 12.1 μL of 6. IN trichloroacetic acid (#T0699, Sigma-Aldrich) was added to each well and mixed, followed by incubation at 65° C. for 20 minutes to hydrolyze N-formylkynurenine, the product of indoleamine 2,3-dioxygenase, to kynurenine. The reaction mixture was then centrifuged for 10 mins at 500×g to sediment the precipitate. 100 μL of the supernatant was transferred from each well to a fresh 96-well plate. 100 μl of 2% (w/v) p-dimethylaminobenzaldehyde (#15647-7, Sigma-Aldrich) in acetic acid (#A6283, Sigma-Aldrich) was added to each well mixed and incubated at room temperature for 20 mins. Kynurenine concentrations were determined by measuring absorbance at 480 nm and calibrating against an L-kynurenine (#K8625, Sigma-Aldrich) standard curve using a SPECTRAMAX® M2e microplate reader (Molecular Devices). The percentage activity at each inhibitor concentration was determined and IC50 values assessed using nonlinear regression.

[1] = read-out: IDO Hela IC50 potency class (A < 50, B < 250, C < 2000)

T1 sequence (P14902 whole entry): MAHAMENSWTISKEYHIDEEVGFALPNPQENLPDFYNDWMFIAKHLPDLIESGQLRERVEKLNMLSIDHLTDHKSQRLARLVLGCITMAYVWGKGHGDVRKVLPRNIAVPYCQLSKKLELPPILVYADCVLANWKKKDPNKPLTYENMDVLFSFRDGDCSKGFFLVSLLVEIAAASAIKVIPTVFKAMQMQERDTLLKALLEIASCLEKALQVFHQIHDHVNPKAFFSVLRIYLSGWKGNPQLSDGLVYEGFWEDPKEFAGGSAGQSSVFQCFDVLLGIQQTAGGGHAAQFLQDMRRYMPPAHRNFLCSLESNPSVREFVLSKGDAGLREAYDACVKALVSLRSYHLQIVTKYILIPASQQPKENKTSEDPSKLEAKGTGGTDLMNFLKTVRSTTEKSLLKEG

IC50 (read-out: IDO Hela IC50) [nM] | IC50 [1] [nM] | SMILES
10 | – | CC[C@H](CC(=O)O)c1ccc(-c2cnn(C)c2)c(Nc2ccc(Cl)cc2F)c1 (single isomer, unassigned) [Example 2]
40 | – | CC[C@H](CC(=O)O)c1ccc(-c2cnn(C)c2)c(Nc2ccc(F)cc2)c1 (single isomer, unassigned) [Example 3]
10 | – | CC[C@H](CC(=O)O)c1ccc(-c2cnn(C)c2)c(Nc2ccc(Cl)cc2)c1 (single isomer, unassigned) [Example 4]
110 | – | CC[C@H](CC(=O)O)c1ccc(-c2cnn(C)c2)c(Nc2ccc(C#N)cc2)c1 (single isomer, unassigned) [Example 5]
470 | – | CC[C@H](CC(=O)O)c1ccc(-c2cnn(C)c2)c(Nc2ccc(Cl)cn2)c1 (single isomer, unassigned) [Example 6]
≥ 1000 | 250 to 2000 | CC[C@H](CC(=O)O)c1ccc(-c2cnn(C)c2)c(Nc2cccc(Cl)c2)c1 (single isomer, unassigned) [Example 7]
380 | – | CC[C@H](CC(=O)O)c1ccc(-c2cnn(C)c2)c(Nc2cccc(F)c2)c1 (single isomer, unassigned) [Example 8]
20 | – | CC[C@H](CC(=O)O)c1ccc(-c2cnn(C)c2)c(Nc2ccc(Cl)c(F)c2)c1 (single isomer, unassigned) [Example 9]
40 | – | CC[C@H](CC(=O)O)c1ccc(-c2cnn(C)c2)c(Nc2ccc(C)cc2)c1 (single isomer, unassigned) [Example 10]
≥ 1000 | 250 to 2000 | CC[C@H](CC(=O)O)c1ccc(-c2cnn(C)c2)c(Nc2cccnc2)c1 (single isomer, unassigned) [Example 11]
≥ 1000 | 250 to 2000 | CC[C@H](CC(=O)O)c1ccc(-c2cnn(C)c2)c(Nc2cnc(C)nc2)c1 (single isomer, unassigned) [Example 12]
≥ 1000 | 250 to 2000 | CCc1ncc(Nc2cc([C@H](CC)CC(=O)O)ccc2-c2cnn(C)c2)cn1 (single isomer, unassigned) [Example 13]
40 | – | CC[C@H](CC(=O)O)c1ccc(-c2cnn(C)c2)c(Nc2ccc(C(F)(F)F)cc2)c1 (single isomer, unassigned) [Example 14]
≥ 1000 | 250 to 2000 | CC[C@H](CC(=O)O)c1ccc(-c2cnn(C)c2)c(Nc2ccccn2)c1 (single isomer, unassigned) [Example 15]
≥ 1000 | 250 to 2000 | CC[C@H](CC(=O)O)c1ccc(-c2cnn(C)c2)c(Nc2ccc(C#N)cn2)c1 (single isomer, unassigned) [Example 16]
10 | – | CC[C@H](CC(=O)O)c1ccc(-c2c(C)noc2C)c(Nc2ccc(Cl)cc2)c1 (single isomer, unassigned) [Example 17]
70 | – | CC[C@H](CC(=O)O)c1ccc(-c2cn[nH]c2)c(Nc2ccc(Cl)cc2)c1 (single isomer, unassigned) [Example 18]
≥ 1000 | 250 to 2000 | CC[C@H](CC(=O)O)c1ccc(-c2nc(C)cs2)c(Nc2ccc(Cl)cc2)c1 (single isomer, unassigned) [Example 19]
30 | – | CC[C@H](CC(=O)O)c1ccc(-c2nc(-c3ccccc3)cs2)c(Nc2ccc(Cl)cc2)c1 (single isomer, unassigned) [Example 20]
≥ 1000 | 250 to 2000 | CC[C@H](CC(=O)O)c1ccc(-c2nccs2)c(Nc2ccc(Cl)cc2)c1 (single isomer, unassigned) [Example 21]
30 | – | CC[C@H](CC(=O)O)c1ccc(-c2nnc(C)s2)c(Nc2ccc(Cl)cc2)c1 (single isomer, unassigned) [Example 22]
≥ 1000 | 250 to 2000 | CC[C@H](CC(=O)O)c1ccc(-c2cnn(C)c2)c(NC(=O)Nc2ccc(Cl)cc2F)c1 (single isomer, unassigned) [Example 23]
≥ 1000 | 250 to 2000 | CC[C@H](CC(=O)O)c1ccc(-c2cnn(C(C)C)c2)c(NC(=O)Nc2ccc(Cl)cc2F)c1 (single isomer, unassigned) [Example 24]
20 | – | CCOc1ncc(Nc2cc([C@H](CC)CC(=O)O)ccc2C2CCN(C(=O)OC(C)(C)C)CC2)cn1 (single isomer, unassigned) [Example 25]

IC50 (read-out: IDO Hela IC50) [nM] | IC50 [1] [nM] | SMILES
20 | – | CCOc1ncc(Nc2cc([C@@H](CC)CC(=O)O)ccc2C2CCN(C(=O)OC(C)(C)C)CC2)cn1 (single isomer, unassigned) [Example 26]
820 | – | CC[C@H](CC(=O)O)c1ccc(C2CCN(C(=O)OC(C)(C)C)CC2)c(Nc2cnc(C)nc2)c1 (single isomer, unassigned) [Example 27]
760 | – | CC[C@@H](CC(=O)O)c1ccc(C2CCN(C(=O)OC(C)(C)C)CC2)c(Nc2cnc(C)nc2)c1 (single isomer, unassigned) [Example 28]
130 | – | CCc1ncc(Nc2cc([C@H](CC)CC(=O)O)ccc2C2CCN(C(=O)OC(C)(C)C)CC2)cn1 (single isomer, unassigned) [Example 29]
– | < 50 | CC[C@H](CC(=O)O)c1ccc(C2CCN(C(=O)OC(C)(C)C)CC2)c(Nc2ccc(C#N)cc2)c1 (single isomer, unassigned) [Example 30]
20 | – | CCc1ncc(Nc2cc([C@@H](CC)CC(=O)O)ccc2C2CCN(C(=O)OC(C)(C)C)CC2)cn1 (single isomer, unassigned) [Example 31]
– | < 50 | CC[C@@H](CC(=O)O)c1ccc(C2CCN(C(=O)OC(C)(C)C)CC2)c(Nc2ccc(C#N)cc2)c1 (single isomer, unassigned) [Example 32]
≥ 1000 | 250 to 2000 | COC[C@@H](CC(=O)O)c1ccc(-c2cnn(C)c2)c(Nc2ccc(C#N)cc2)c1 (single isomer, unassigned) [Example 33, 3-(3-((4-cyanophenyl)amino)-4-(1-methyl-1H-pyrazol-4-yl)phenyl)-4-methoxybutanoic Acid]
320 | – | COC[C@@H](CC(=O)O)c1ccc(-c2ccc3c(c2)OCO3)c(Nc2ccc(C#N)cc2)c1 (single isomer, unassigned) [Example 34]
10 | – | COC[C@@H](CC(=O)O)c1ccc(-c2ccoc2)c(Nc2ccc(C#N)cc2)c1 (single isomer, unassigned) [Example 35]
30 | – | COC[C@@H](CC(=O)O)c1ccc(-c2cnn(Cc3ccc(OC)cc3)c2)c(Nc2ccc(C#N)cc2)c1 (single isomer, unassigned) [Example 36]
50 | – | COC[C@H](CC(=O)O)c1ccc(-c2ccc3c(c2)OCO3)c(Nc2ccc(C#N)cc2)c1 (single isomer, unassigned) [Example 38]
20 | – | COC[C@H](CC(=O)O)c1ccc(-c2ccoc2)c(Nc2ccc(C#N)cc2)c1 (single isomer, unassigned) [Example 39]
90 | – | COC[C@H](CC(=O)O)c1ccc(-c2ccc3c(c2)CCO3)c(Nc2ccc(C#N)cc2)c1 (single isomer, unassigned) [Example 40]
≥ 1000 | 250 to 2000 | COC[C@H](CC(=O)O)c1ccc(-c2cncnc2)c(Nc2ccc(C#N)cc2)c1 (single isomer, unassigned) [Example 43]
450 | – | COC[C@H](CC(=O)O)c1ccc(-c2cnn(Cc3ccccc3)c2)c(Nc2ccc(C#N)cc2)c1 (single isomer, unassigned) [Example 44]
50 | – | COC[C@H](CC(=O)O)c1ccc(-c2cnn(Cc3ccc(OC)cc3)c2)c(Nc2ccc(C#N)cc2)c1 (single isomer, unassigned) [Example 45]
40 | – | CCOc1ncc(Nc2cc([C@H](CC)CC(=O)O)ccc2-c2ccoc2)cn1 (single isomer, unassigned) [Example 46]
10 | – | CCOc1ncc(Nc2cc([C@H](CC)CC(=O)O)ccc2-c2cnn(Cc3ccc(OC)cc3)c2)cn1 (single isomer, unassigned) [Example 47]
340 | – | CCOc1ncc(Nc2cc([C@H](CC)CC(=O)O)ccc2-c2cnn(-c3ccc(F)cc3)c2)cn1 (single isomer, unassigned) [Example 48]
30 | – | CCOc1ncc(Nc2cc(C(CC)CC(=O)O)ccc2-c2ccc(OC)c(F)c2)cn1 (single isomer, unassigned) [Example 49]
≥ 1000 | 250 to 2000 | CCOc1ncc(Nc2cc([C@H](CC)CC(=O)O)ccc2-c2cccc3[nH]ncc23)cn1 (single isomer, unassigned) [Example 50]
150 | – | CCOc1ncc(Nc2cc([C@H](CC)CC(=O)O)ccc2-c2ccc3c(cnn3C)c2)cn1 (single isomer, unassigned) [Example 51]

From patent publication US10959986B2, “Inhibitors of indoleamine 2,3-dioxygenase and methods of their use” (BRISTOL-MYERS SQUIBB COMPANY, priority 2018, dated 2021)
